Measurements: patent US5994334A, “Androgen synthesis inhibitors” (priority 1997, dated 1999)
Entries after “also recorded” stand apart in the source; their conditions may differ. Where two headings read alike, the source gives them in different places.

Columns and labels:
[1] = biological target: T1, human 17α-hydroxylase/C17,20-lyase (Homo sapiens, UniProt P05093); test: Inhibition of human testicular 17α-hydroxylase/C17,20-lyase (enzyme complex as a whole); assay type: biochemical; settings: NI = no inhibition
T1 construct: incubating human testicular microsomes; from tissue; host or cells: human testis, microsomes
T1 sequence (P05093 1-508): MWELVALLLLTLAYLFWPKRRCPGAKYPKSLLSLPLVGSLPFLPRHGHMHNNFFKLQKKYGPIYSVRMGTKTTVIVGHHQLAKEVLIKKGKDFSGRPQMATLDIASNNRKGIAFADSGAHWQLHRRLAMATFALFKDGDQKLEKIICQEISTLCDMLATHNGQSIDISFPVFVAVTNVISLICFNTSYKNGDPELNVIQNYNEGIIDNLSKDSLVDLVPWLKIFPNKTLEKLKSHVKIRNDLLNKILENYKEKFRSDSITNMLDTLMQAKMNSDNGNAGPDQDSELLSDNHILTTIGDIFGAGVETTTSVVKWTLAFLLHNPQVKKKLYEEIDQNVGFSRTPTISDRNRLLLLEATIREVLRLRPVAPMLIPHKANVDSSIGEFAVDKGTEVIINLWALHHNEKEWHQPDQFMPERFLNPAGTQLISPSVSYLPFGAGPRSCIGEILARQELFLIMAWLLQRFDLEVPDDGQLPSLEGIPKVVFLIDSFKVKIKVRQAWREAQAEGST
Description: (§1) The conversion of radiolabeled pregnenolone to 17α-hydroxypregnenolone and DHEA by 17α-hydroxylase/C17,20 -lyase was measured by incubating human testicular microsomes with different concentration of test compounds. Reverse phase HPLC was used to separate and accurately quantify the amount of substrate and metabolites. The 17α-hydroxylase and C17,20 -lyase activities were calculated separately. The activity of 17α-hydroxylase was calculated from the conversion of pregnenolone to 17α-hydroxypregnenolone and DHEA and the activity of C17,20 -lyase was based on the conversion of pregnenolone to DHEA. Although 17α-hydroxypregnenolone is the substrate converted to DHEA by C17,20 -lyase, it has been reported that this 17α-hydroxy intermediate is not released from the enzyme binding site during conversion (Nakajin et al., 1981a,b). Also, there are species differences in substrate requirements. Pregnenolone is the natural substrate rather than progesterone for human testicular 17α-hydroxylase and C17,20 -lyase. Therefore, pregnenolone was used as substrate for measuring the activity of this enzyme complex.

[2] = biological target: T2, Human Prostatic 5α-Reductase (Homo sapiens, UniProt P31213); test: Inhibition of human prostatic 5α-reductase (prostatic microsomes, [3H]testosterone)
T2 sequence (P31213 1-254): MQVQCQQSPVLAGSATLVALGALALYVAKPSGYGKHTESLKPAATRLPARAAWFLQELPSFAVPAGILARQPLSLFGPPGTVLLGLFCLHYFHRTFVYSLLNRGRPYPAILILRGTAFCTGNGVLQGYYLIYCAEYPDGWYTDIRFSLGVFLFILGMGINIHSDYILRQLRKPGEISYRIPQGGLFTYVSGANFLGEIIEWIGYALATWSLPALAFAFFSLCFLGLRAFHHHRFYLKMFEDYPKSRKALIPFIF
Description: The 5α-reductase assay is performed by incubating human prostatic microsomes (approx. 0.6 mg protein in 0.5 ml phosphate buffer) with [7-^3 H]testosterone (10 mM. 6×10^5 dpm) with a NADPH generating system (NADP 0.65 mM; glucose-6-phosphate 7.1 mM; glucose-6-phosphate dehydrogenase 2.5 IU in 100 μl phosphate buffer) and candidate inhibitors at concentrations of 10 nM and 100 nM under oxygen for 30 min at 37° C. […] The steroids are extracted with ether and separated by chromatography on TLC (chloroform:ether 80:20). […] The steroids are scraped from the plate and radioactivity measured.

[3] = biological target: T3, Human Testicular C17,20-lyase (Homo sapiens, UniProt P05093); test: Inhibition of human testicular C17,20-lyase (pregnenolone substrate, testicular microsomes); assay type: biochemical; settings: for inhibition at 0.1 µM: read-out: % Inhibition C17,20-lyase, [I] = 100 nM; for inhibition at 0.4 µM: read-out: % Inhibition C17,20-lyase, [I] = 400 nM
T3 construct: incubating human testicular microsomes; from tissue; host or cells: human testis, microsomes
T3 sequence (P05093 1-508): T1 sequence (P05093 1-508)
Description: as §1

[4] = biological target: T4, Human Testicular 17α-Hydroxylase (Homo sapiens, UniProt P05093); test: Inhibition of human testicular 17α-hydroxylase (pregnenolone substrate, testicular microsomes); assay type: biochemical; settings: for inhibition at 0.1 µM: read-out: % Inhibition 17α-hydroxylase, [I] = 100 nM; for inhibition at 0.4 µM: read-out: % Inhibition 17α-hydroxylase, [I] = 400 nM
T4 construct: incubating human testicular microsomes; from tissue; host or cells: human testis, microsomes
T4 sequence (P05093 1-508): T1 sequence (P05093 1-508)
Description: as §1

[5] = system: LNCaP human prostatic cancer cell line; test: Androgen-dependent growth of LNCaP cells
Description: The ability of various inhibitors to reverse the stimulatory effect of testosterone on the growth of the LNCaP human prostatic cancer cell line was tested by comparing cell number in wells treated for 9 days with either drug vehicle only (control), 0.1 nM testosterone only, or 0.1 nM testosterone with inhibitor at 0.3, 1, 2.5, or 5 μM.

[6] = Table 1, NI = no inhibition, CI = complete inhibition, read-out: IC50 C17,20 lyase
[7] = Table 1, NI = no inhibition, read-out: IC50 17α-OHase

CC(=NO)[C@H]1CC[C@H]2[C@@H]3CCC4=CC(=NO)CC[C@]4(C)[C@H]3CC[C@]12C [Compound I-42]
inhibition of 17α-hydroxylase/C17,20-lyase (in words) [1]: decreased activity
inhibition of 5α-reductase (in words) ([2]; NI = no inhibition): decreased activity
IC50 ([2]; read-out: IC50 5α-reductase, Table 2): 2060 nM
IC50 [3, 6]: 220 nM
IC50 [4, 7]: 210 nM

CC(=O)[C@@]12O[C@@H]1C[C@H]1[C@@H]3CC=C4C[C@@H](O)CC[C@]4(C)[C@H]3CC[C@@]12C [Compound I-17]
inhibition of 17α-hydroxylase/C17,20-lyase (in words) [1]: decreased potency
IC50 [3, 6]: 680 nM
IC50 [4, 7]: 440 nM

C[C@]12CC[C@H]3[C@@H](CC=C4C[C@@H](O)CC[C@@]43C)[C@@H]1CC[C@@H]2c1ncc[nH]1 [Compound L-1]
inhibition of 17α-hydroxylase/C17,20-lyase (in words) [1]: poor inhibition of 17α-hydroxylase/C17,20 -lyase
inhibition at 0.1 µM ([3]; 100 nM, second figure of pair): 73.9%
inhibition at 0.4 µM ([3]; 400 nM, second figure of pair): 100%
inhibition at 0.1 µM ([4]; 100 nM, first figure of pair): 22.8%
inhibition at 0.4 µM ([4]; 400 nM, first figure of pair): 23.7%

C[C@@H](O)[C@H]1CC[C@H]2[C@@H]3CC=C4C[C@@H](O)CC[C@]4(C)[C@H]3CC[C@]12C [Compound I-20]
inhibition of 17α-hydroxylase/C17,20-lyase (in words) [1]: potent inhibition
inhibition of 5α-reductase (in words) ([2]; NI = no inhibition): neither showed activity against 5α-reductase
IC50 ([3]; IC50 C17,20 lyase): 190 nM
IC50 ([4]; IC50 17α-OHase): 180 nM

Cc1nc([C@H]2CC[C@H]3[C@@H]4CC=C5C[C@@H](O)CC[C@]5(C)[C@H]4CC[C@]23C)c[nH]1 [Compound L-4]
IC50 ([1]; one value for 17α-hydroxylase/lyase, read-out: IC50 17α-hydroxylase/lyase (single entry)): 400 nM
inhibition at 0.1 µM [3]: 70.2%
inhibition at 0.4 µM [3]: 100%
inhibition at 0.1 µM [4]: 13.8%
inhibition at 0.4 µM [4]: 41.9%

C[C@@H](O)C1=CC[C@H]2[C@@H]3CCC4=CC(=O)CC[C@]4(C)[C@H]3CC[C@]12C [Compound L-10, 20β-hydroxy-pregna-4,16-dien-3-one]
IC50 ([2]; IC50 5α-reductase): 20 nM
IC50 ([2]; IC50 5α-reductase, Table 2): 21 nM
IC50 ([2]; IC50 5α-reductase, Table 3, NI = no inhibition): 21 nM
inhibition of 5α-reductase (in words) ([2]; NI = no inhibition): almost equipotent with finasteride
inhibition at 0.01 µM ([2]; read-out: % Inhibition of 5α-reductase, [I] 10 nM): 97%
inhibition at 0.1 µM ([2]; read-out: % Inhibition of 5α-reductase, [I] 100 nM): 90.7%
inhibition at 0.1 µM [3]: 2.28%
inhibition at 0.4 µM [3]: 8.48%
reversal of DHT-stimulated LNCaP growth (in words) ([5]; 0.03 nM DHT): not dose-dependent
reversal of testosterone-stimulated LNCaP growth (in words) ([5]; 0.1 nM testosterone, inhibitor 0.3-5 μM, 9 days): dose-dependent reversal
inhibition at 0.1 µM [4]: 14.9%
inhibition at 0.4 µM [4]: 8.19%

CC(=O)O[C@H]1CC[C@@]2(C)C(=CC[C@@H]3[C@@H]2CC[C@]2(C)C(c4c[nH]cn4)=CC[C@@H]32)C1 [Compound L-12]
inhibition of 17α-hydroxylase/C17,20-lyase (in words) [1]: lower potency than I-49; also recorded: weaker inhibitor than I-49
inhibition at 0.1 µM ([3]; 100 nM, second figure of pair): 82.1%
inhibition at 0.4 µM ([3]; 400 nM, second figure of pair): 97%
IC50 [3, 6]: 25 nM
IC50 ([3]; Table 3, second figure of pair, CI = complete inhibition, read-out: IC50 lyase): 24.8 nM
IC50 ([3]; second figure of pair, read-out: IC50 C17,20-lyase): 25 nM
inhibition at 0.1 µM ([4]; 100 nM, first figure of pair): 62.4%
inhibition at 0.4 µM ([4]; 400 nM, first figure of pair): 89.3%
IC50 [4, 7]: 75 nM
IC50 ([4]; Table 3, first figure of 17α-hydroxylase/lyase pair, read-out: IC50 17α-hydroxylase): 74.6 nM
IC50 ([4]; first figure of pair, read-out: IC50 17α-hydroxylase): 75 nM
